Data on 23 molecules can be found in US9822114B2, “Tricyclic oxazolidinone antibiotic compounds” (Idorsia Pharmaceuticals Ltd, priority 2008, dated 2017).

Values after ≈ are worked out from the molar mass of the structure shown. Bounds are passed on as bounds.

The first test has as its system M. catarrhalis A894. The experiment in a line: Minimal inhibitory concentration (MIC), microdilution method in cation-adjusted Mueller-Hinton Broth (CLSI M7-A7). It counts as cell-based. Conditions: Moraxella catarrhalis, strain A894. The protocol: Minimal inhibitory concentrations (MICs; mg/1) were determined in cation-adjusted Mueller-Hinton Broth by a microdilution method following the description given in “Methods for Dilution Antimicrobial Susceptibility Tests for Bacteria that Grow Aerobically”, Approved standard, 7th ed., Clinical and Laboratory Standards Institute (CLSI) Document M7-A7, Wayne, Pa., USA, 2006.
(Broth dilution looks for growth in wells or tubes with falling amounts of substance.)
By MIC is commonly meant the lowest concentration that inhibits growth of the organism. High values mean a need for much substance, low ones inhibition by little substance. For `O=C1O[C@H](CCNC[C@@H]2Cn3c(=O)ccc4ccc(F)c2c43)CN1c1cc2c(cn1)OCCO2` (racemic) [Example 42, (RS)-1-({2-[(RS)-3-(2,3-dihydro-[1,4]dioxino[2,3-c]pyridin-7-yl)-2-oxo-oxazolidin-5-yl]-ethylamino}-methyl)-9-fluoro-1,2-dihydro-pyrrolo[3,2,1-ij]quinolin-4-one], 2 µg/mL (≈ 4.29 µM) was the least that counted as inhibitory (MIC).

The molecule `O=C1O[C@H](CCNC[C@@H]2Cn3c(=O)ccc4ccc(F)c2c43)CN1c1ccc2c(n1)OCCO2` (racemic) [Example 43, (RS)-1-({2-[(RS)-3-(2,3-dihydro-[1,4]dioxino[2,3-b]pyridin-6-yl)-2-oxo-oxazolidin-5-yl]-ethylamino}-methyl)-9-fluoro-1,2-dihydro-pyrrolo[3,2,1-ij]quinolin-4-one] returned a minimum inhibitory concentration (MIC) of 1 µg/mL (≈ 2.14 µM).

On to `O=C1COc2ccc(N3C[C@@H](CCNC[C@@H]4Cn5c(=O)ccc6ccc(F)c4c65)OC3=O)nc2N1` (racemic) [Example 47, (RS)-9-fluoro-1-({2-[(RS)-2-oxo-3-(3-oxo-3,4-dihydro-2H-pyrido[3,2-b][1,4]oxazin-6-yl)-oxazolidin-5-yl]-ethylamino}-methyl)-1,2-dihydro-pyrrolo[3,2,1-ij]quinolin-4-one], for which the minimal inhibitory concentration (MIC) is not above 0.031 µg/mL.

The molecule `O=C1CSc2ccc(N3C[C@@H](CCCNC[C@@H]4Cn5c(=O)ccc6cccc4c65)OC3=O)cc2N1` (racemic) [Example 83, (RS)-1-({3-[(RS)-2-oxo-3-(3-oxo-3,4-dihydro-2H-benzo[1,4]thiazin-6-yl)-oxazolidin-5-yl]-propylamino}-methyl)-1,2-dihydro-pyrrolo[3,2,1-ij]quinolin-4-one] registered an MIC not above 0.031 µg/mL.

`O=C1CSc2ccc(N3C[C@H]([C@H](O)CCN[C@H]4Cn5c(=O)ccc6ccc(F)c4c65)OC3=O)cc2N1` (racemic) [Example 113, (1RS)-9-fluoro-1-{(3RS)-3-hydroxy-3-[(5RS)-2-oxo-3-(3-oxo-3,4-dihydro-2H-benzo[1,4]thiazin-6-yl)-oxazolidin-5-yl]-propylamino}-1,2-dihydro-pyrrolo[3,2,1-ij]quinolin-4-one] had a minimal inhibitory concentration (MIC) not above 0.031 µg/mL.

In turn, `O=C1CSc2ccc(N3C[C@@H](CCCCN[C@H]4Cn5c(=O)ccc6ccc(F)c4c65)OC3=O)cc2N1` (racemic) [Example 159, (RS)-9-fluoro-1-{4-[(RS)-2-oxo-3-(3-oxo-3,4-dihydro-2H-benzo[1,4]thiazin-6-yl)-oxazolidin-5-yl]-butylamino}-1,2-dihydro-pyrrolo[3,2,1-ij]quinolin-4-one] returned an MIC not above 0.031 µg/mL.

As to `COC(=O)[C@H]1[C@H](NCCC[C@@H]2CN(c3ccc4c(c3)NC(=O)CS4)C(=O)O2)c2c(F)ccc3ccc(=O)n1c23` (relative stereo) [Example 181, (1R*,2R*)-9-fluoro-4-oxo-1-{3-[(R)-2-oxo-3-(3-oxo-3,4-dihydro-2H-benzo[1,4]thiazin-6-yl)-oxazolidin-5-yl]-propylamino}-1,2-dihydro-4H-pyrrolo[3,2,1-ij]quinoline-2-carboxylic acid methyl ester], the MIC was not above 0.031 µg/mL.

Consider `O=C1CSc2ccc(N3C[C@@H](CCCN[C@@H]4c5c(F)ccc6ccc(=O)n(c56)[C@H]4CO)OC3=O)cc2N1` (relative stereo) [Example 182, (1R*,2R*)-9-fluoro-2-hydroxymethyl-1-{3-[(R)-2-oxo-3-(3-oxo-3,4-dihydro-2H-benzo[1,4]thiazin-6-yl)-oxazolidin-5-yl]-propylamino}-1,2-dihydro-pyrrolo[3,2,1-ij]quinolin-4-one], for which the MIC is not above 0.031 µg/mL.

For the molecule `C[C@H]1[C@H](NCCC[C@@H]2CN(c3ccc4c(c3)NC(=O)CS4)C(=O)O2)c2c(F)ccc3ccc(=O)n1c23` (relative stereo) [Example 183, (1R*,2S*)-9-fluoro-2-methyl-1-{3-[(R)-2-oxo-3-(3-oxo-3,4-dihydro-2H-benzo[1,4]thiazin-6-yl)-oxazolidin-5-yl]-propylamino}-1,2-dihydro-pyrrolo[3,2,1-ij]quinolin-4-one], the minimum inhibitory concentration (MIC) is not above 0.031 µg/mL.

The molecule `C[C@H]1[C@H](NCCC[C@H]2CN(c3ccc4c(c3)NC(=O)CS4)C(=O)O2)c2c(F)ccc3ccc(=O)n1c23` (relative stereo) [Example 184, (1R*,2S*)-9-fluoro-2-methyl-1-{3-[(S)-2-oxo-3-(3-oxo-3,4-dihydro-2H-benzo[1,4]thiazin-6-yl)-oxazolidin-5-yl]-propylamino}-1,2-dihydro-pyrrolo[3,2,1-ij]quinolin-4-one] showed an MIC not above 0.031 µg/mL.

Molecule `C[C@H]1[C@H](NCCC[C@@H]2CN(c3ccc4c(n3)NC(=O)CS4)C(=O)O2)c2c(F)ccc3ccc(=O)n1c23` (relative stereo) [Example 185, (1R*,2S*)-9-fluoro-2-methyl-1-{3-[(R)-2-oxo-3-(3-oxo-3,4-dihydro-2H-pyrido[3,2-b][1,4]thiazin-6-yl)-oxazolidin-5-yl]-propylamino}-1,2-dihydro-pyrrolo[3,2,1-ij]quinolin-4-one] displayed an MIC not above 0.031 µg/mL.

Molecule `Cl.O=C1CSc2ccc(N3C[C@@H](CCCN[C@@H]4c5c(F)ccc6ccc(=O)n(c56)[C@H]4C(=O)O)OC3=O)cc2N1` (relative stereo) [Example 186, (1R*,2R*)-9-fluoro-4-oxo-1-{3-[(R)-2-oxo-3-(3-oxo-3,4-dihydro-2H-benzo[1,4]thiazin-6-yl)-oxazolidin-5-yl]-propylamino}-1,2-dihydro-4H-pyrrolo[3,2,1-ij]quinoline-2-carboxylic acid hydrochloride] yielded an MIC of 0.5 µg/mL.

Consider `NC[C@H]1[C@H](NCCC[C@@H]2CN(c3ccc4c(c3)NC(=O)CS4)C(=O)O2)c2c(F)ccc3ccc(=O)n1c23` (relative stereo) [Example 188, (1R*,2S*)-2-aminomethyl-9-fluoro-1-{3-[(R)-2-oxo-3-(3-oxo-3,4-dihydro-2H-benzo[1,4]thiazin-6-yl)-oxazolidin-5-yl]-propylamino}-1,2-dihydro-pyrrolo[3,2,1-ij]quinolin-4-one], for which the MIC was not above 0.031 µg/mL.

`O=C1CSc2ccc(N3C[C@@H](CCNC[C@@H]4Cn5c(=O)ccc6nccc4c65)OC3=O)cc2N1` [Example 15, (4R)-4-({2-[(R)-2-oxo-3-(3-oxo-3,4-dihydro-2H-benzo[1,4]thiazin-6-yl)-oxazolidin-5-yl]-ethylamino}-methyl)-4,5-dihydro-pyrrolo[3,2,1-de][1,5]naphthyridin-7-one]: the MIC was not above 0.031 µg/mL.

In turn, `O=C1CSc2ccc(N3C[C@@H](CCCN[C@H]4Cn5c(=O)ccc6nccc4c65)OC3=O)cc2N1` [Example 18, (4R)-4-{3-[(R)-2-oxo-3-(3-oxo-3,4-dihydro-2H-benzo[1,4]thiazin-6-yl)-oxazolidin-5-yl]-propylamino}-4,5-dihydro-pyrrolo[3,2,1-de][1,5]naphthyridin-7-one] yielded a minimal inhibitory concentration (MIC) not above 0.031 µg/mL.

Take `O=C1COc2ccc(N3C[C@@H](CCCN[C@H]4Cn5c(=O)ccc6nccc4c65)OC3=O)cc2N1` [Example 19, (4R)-4-{3-[(R)-2-oxo-3-(3-oxo-3,4-dihydro-2H-benzo[1,4]oxazin-6-yl)-oxazolidin-5-yl]-propylamino}-4,5-dihydro-pyrrolo[3,2,1-de][1,5]naphthyridin-7-one]: the MIC is not above 0.031 µg/mL.

`O=C1CSc2ccc(N3C[C@@H](CCCN[C@@H]4Cn5c(=O)ccc6nccc4c65)OC3=O)cc2N1` [Example 39, (S)-4-{3-[(R)-2-oxo-3-(3-oxo-3,4-dihydro-2H-benzo[1,4]thiazin-6-yl)-oxazolidin-5-yl]-propylamino}-4,5-dihydro-pyrrolo[3,2,1-de][1,5]naphthyridin-7-one] displayed a minimum inhibitory concentration (MIC) not above 0.031 µg/mL.

`O=C1COc2ccc(N3C[C@@H](CCCN[C@@H]4Cn5c(=O)ccc6nccc4c65)OC3=O)cc2N1` [Example 40, (S)-4-{3-[(R)-2-oxo-3-(3-oxo-3,4-dihydro-2H-benzo[1,4]oxazin-6-yl)-oxazolidin-5-yl]-propylamino}-4,5-dihydro-pyrrolo[3,2,1-de][1,5]naphthyridin-7-one] yielded a minimum inhibitory concentration (MIC) of 0.125 µg/mL (≈ 0.271 µM).

`O=C1CSc2ccc(N3C[C@H](CCN[C@@H]4Cn5c(=O)ccc6nccc4c65)OC3=O)cc2N1` [Example 41, (S)-4-{2-[(S)-2-oxo-3-(3-oxo-3,4-dihydro-2H-benzo[1,4]thiazin-6-yl)-oxazolidin-5-yl]-ethylamino}-4,5-dihydro-pyrrolo[3,2,1-de][1,5]naphthyridin-7-one]: the MIC came to 0.5 µg/mL (≈ 1.08 µM).

On to `O=C1CSc2ccc(N3C[C@@H](CCCN[C@@H]4Cn5c(=O)cnc6cccc4c65)OC3=O)cc2N1` [Example 48, (S)-6-{3-[(R)-2-oxo-3-(3-oxo-3,4-dihydro-2H-benzo[1,4]thiazin-6-yl)-oxazolidin-5-yl]-propylamino}-5,6-dihydro-pyrrolo[1,2,3-de]quinoxalin-3-one], for which the minimum inhibitory concentration (MIC) was not above 0.031 µg/mL.

The test is the same for the next values; noted with them: strain A894.
`O=C1CSc2ccc(N3C[C@@H](CCNCC4Cn5c(=O)ccc6cccc4c65)OC3=O)cc2N1` (mixture of isomers) [Example 53, (RS)-1-({2-[(R)-2-oxo-3-(3-oxo-3,4-dihydro-2H-benzo[1,4]thiazin-6-yl)-oxazolidin-5-yl]-ethylamino}-methyl)-1,2-dihydro-pyrrolo[3,2,1-U]quinolin-4-one]: the “MIC for M. catarrhalis A894” value is recorded as “≦0.031 mg/l”.

As for `O=C1CSc2ccc(N3C[C@H](CCNCC4Cn5c(=O)ccc6cccc4c65)OC3=O)cc2N1` (mixture of isomers) [Example 61, (RS)-1-({2-[(S)-2-oxo-3-(3-oxo-3,4-dihydro-2H-benzo[1,4]thiazin-6-yl)-oxazolidin-5-yl]-ethylamino}-methyl)-1,2-dihydro-pyrrolo[3,2,1-U]quinolin-4-one], the “MIC for M. catarrhalis A894” value is “≦0.031 mg/l”.

For the molecule `O=C1COc2ccc(N3C[C@H](CCNCC4Cn5c(=O)ccc6cccc4c65)OC3=O)cc2N1` (mixture of isomers) [Example 62, (RS)-1-({2-[(S)-2-oxo-3-(3-oxo-3,4-dihydro-2H-benzo[1,4]oxazin-6-yl)-oxazolidin-5-yl]-ethylamino}-methyl)-1,2-dihydro-pyrrolo[3,2,1-U]quinolin-4-one], the “MIC for M. catarrhalis A894” value is on record as “≦0.031 mg/l”.
